Measured values reported in patent US12465616B2, “Methods and compositions for disrupting biofilm utilizing chitosan-derivative compounds” (SYNEDGEN, INC., priority 2009, dated 2025).

System: MRSA MW-2
Assay: Prophylactic activity on pigskin
Format: cell-based, Staphylococcus aureus
Details: treatment dried 1-hour, about 10^3 CFU for 1-hour; chitosan-arginine 60 μg/cm^2 in 70% ethanol (21 kDa, 29% functionalized, FIG. 24); hydrogen peroxide 3%

SMILES	prophylactic activity, qualitative CFU recovered from treated skin surface
OO [hydrogen peroxide]	no prophylactic activity
CCO [70% ethanol, ethanol]	no prophylactic activity
